Drawing on PubChem BioAssay (NCI), this text covers TGI for eight compounds.

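Briefly, cells in 96-well plates were exposed to five compound concentrations for 48 h, and endpoints were estimated by linear interpolation. The concentration for full growth arrest is given as TGI.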

The term TGI denotes the concentration giving total growth inhibition. A higher TGI goes with lower sensitivity of the cells.

Holding throughout (assay): DTP human tumour cell line panel, 48 h
Test [1] concerns CAKI-1 renal.
The test system of test [2] is CCRF-CEM leukemia.
Test [3] concerns COLO 205 colon.
In test [4] the test system is DU-145 prostate.
Test [5] relates to HOP-92 NSCLC.
Test [6] relates to HT29 colon.
The subject of test [7] is IGROV1 ovarian.
The test system of test [8] is K-562 leukemia.
In test [9] the test system is LOX IMVI melanoma.
For test [10], the system named is M14 melanoma.
Test [11] relates to MCF7 breast.
In test [12] the test system is MDA-MB-231 breast.
In test [13] the test system is MDA-N.
The subject of test [14] is OVCAR-4 ovarian.
Test [15] deals with OVCAR-8 ovarian.
Test [16] has as its system SF-295 CNS.
Test [17] concerns SF-539 CNS.
The subject of test [18] is SK-MEL-28 melanoma.
Test [19] relates to UACC-257 melanoma.
The test system of test [20] is BT-549 breast.

As for `CCOC(=O)C(=CNc1ccc(N(C2=NCC(C)S2)c2ccc(F)c(Cl)c2)cc1)C(=O)OCC` (centres undefined), the TGI in test [1] is above 100 µM; in test [2], 30.1 µM; in test [3] it was 33.3 µM; in test [4], 43.9 µM; in test [5] it was 36.1 µM; in test [6], 34.7 µM. For the same compound, the TGI in test [7] is 44.5 µM; in [8], above 100 µM; in [9] it was 34.5 µM; in [10], 35.4 µM; in test [11], 53.9 µM; in test [12], 30.9 µM. Also, the TGI worked out at 43.1 µM in test [13]; 65.3 µM in test [14]; 37.3 µM in [15]; 64.2 µM in test [16]; 46.4 µM in test [17]; 42.5 µM in test [18]. The compound also had a TGI in test [19] of 34 µM.

As to `O=C1C[C@@]23CCC4(CC2CCC[C@H]3O1)OCCO4` (some centres undefined), the TGI in [3], in [4], in test [5], in test [6], in test [7] and in test [8] was above 100 µM throughout. For the same compound, the TGI in test [9], in [10], in test [11], in [12], in test [13] and in test [14] was above 100 µM in each case. Moreover, the TGI in test [15], in test [16], in test [17], in test [18] and in test [19] was above 100 µM in each case.

As for `Cc1cccc2oc3c(c(=O)c12)CC(O)C(C)(C)O3` (centres undefined), the TGI in test [1], in test [2], in test [3], in [4], in test [5] and in test [6] was above 100 µM throughout. Moreover, the TGI in test [7], in test [8], in test [9], in [10], in test [11] and in test [13] was above 100 µM throughout. Moreover, the TGI in test [14], in test [16], in test [17], in test [18] and in [19] was above 100 µM throughout.

In the case of `O=c1[nH]nc(-c2ccccc2)n1/N=C/c1cccc([N+](=O)[O-])c1`, the total growth inhibition concentration (TGI) in test [20], in test [1], in test [2], in [3], in [4] and in test [5] was above 100 µM each time. Also, the TGI in [6], in test [7], in test [8], in test [9], in [10] and in test [11] was above 100 µM in each case. In addition, the TGI in test [12], in [14], in test [15], in test [16], in test [17] and in test [18] was above 100 µM in each case. The TGI in test [19] is above 100 µM.

As for `N#Cc1c(=O)c2ccccc2n2ccccc12`, the TGI in [1], in [2], in [3], in test [4], in test [5] and in test [6] was above 100 µM throughout. Besides, the TGI in test [7], in test [8], in test [9], in test [12], in test [13] and in test [14] was above 100 µM in each case. Besides, the TGI in test [15], in [18] and in test [19] was above 100 µM each time.

For `Nc1ccccc1C#CC(=O)c1cccc(C(F)(F)F)c1`, the TGI was determined as 13.5 µM in test [1]; 4.42 µM in test [2]; 3.87 µM in test [3]; 37.1 µM in test [4]; 4.84 µM in [5]; 19.2 µM in test [6]. The TGI in test [7] was 1.99 µM; in test [8], above 100 µM; in [9], 4.02 µM; in test [10] it was 5.1 µM; in test [11], 9.91 µM; in test [12], 4.97 µM. Further, the TGI in test [13] amounted to 10.6 µM; in test [14], 5.51 µM; in test [16] it was 34.1 µM; in test [17] it was 10.9 µM; in test [19], 29.5 µM.

As for `O=C(c1ccccc1)N1C(=O)N(c2ccccc2)C(=Nc2ccccc2)C1=Nc1ccccc1`, the TGI in [1], in [2], in [3], in [4], in test [5] and in test [6] was above 100 µM each time. Further, the TGI in [7], in test [8], in test [9], in test [12], in test [13] and in [14] was above 100 µM throughout. The TGI in [15], in test [16], in [17], in test [18] and in test [19] was above 100 µM throughout.

In the case of `O=Cc1ccc(OC[C@H]2COC(=O)N2)cc1`, the TGI in test [20], in test [1], in [2], in [3], in test [4] and in [6] was above 100 µM in each case. Moreover, the TGI in test [7], in test [8], in test [9], in test [10], in [11] and in test [12] was above 100 µM in each case. Also, the TGI in test [14], in test [15], in [16], in [17], in test [18] and in test [19] was above 100 µM each time.
